Reference: patent publication US20030235904A1, “Bacterial parts washer, composition and method of use” (Osprey Biotechnics, Inc., priority 2002, published 2003)

Assays:
[1] = tested on: Pseudomonas putida NRRL-B-18118; assay: Oxygen uptake (BOD analyzer) with NEODOL 91-6 and 1% motor oil; type: cell-based; set-up: oxygen uptake: unit not given here; settings: for oxygen uptake: 25° C.
Method: The assay measured oxygen uptake of Pseudomonas putida NRRL-B-18118 in the presence 0.001 to 1.0% NEODOL 91-6 and 1% motor oil in a minimal media broth. The pseudomonads were suspended at 10^8 CFU/mL and placed in a HATCH Model 2173B biological oxygen demand (BOD) analyzer at 25° C. […] was measured over a 48 hour time period.

[2] = tested on: Pseudomonas putida NRRL-B-18118; assay: Shelf-life of the pseudomonad stored with NEODOL 91-6 (plate counts); type: cell-based
Method: The Pseudomonas putida NRRL-B-18118 was stabilized in a liquid according to the method described in U.S. Pat. No. 5,980,747 to Vandenbergh. Briefly, sodium nitrate was mixed with water in an amount of 0.26 gm per 100 gm (mL) of water. This produced a 0.26% solution by weight. To this solution, Pseudomonas putida NRRL-B-18118 was added in an amount to provide a final concentration of 1.4×10^8 CFU/mL of the pseudomonad and a final concentration of nitrate of 0.13%. Optionally, a buffering amount of monoammonium phosphate was added at a ratio between about 1:1 to 125:1 sodium nitrate to monoammonium phosphate to enhance the preservation of the pseudomonad at 25° C.
Pseudomonas putida NRRL-B-18118 was stabilized in a liquid according as described in Example 1. The stabilized pseudomonads were then mixed with the ethoxylated surfactant NEODOL 91-6 at the appropriate amount to arrive at the appropriate fixed concentration. The solutions were incubated at 25° C. At various times, aliquots were removed and plated on agar plates and the colony forming units (CFU) per mL were recorded.

“(C9-C11) alkyl alcohol ethoxylate (polyethyleneglycol-(C9-C11)-ether) [NEODOL 91-6]” showed an oxygen uptake ([1]; 0.001% NEODOL 91-6, 1% motor oil, 0 h) of 0, an oxygen uptake ([1]; 0.001% NEODOL 91-6, 1% motor oil, 12 h) of 40 and an oxygen uptake ([1]; 0.001% NEODOL 91-6, 1% motor oil, 21 h) of 100. It also gave an oxygen uptake ([1]; 0.001% NEODOL 91-6, 1% motor oil, 28 h) of 140, an oxygen uptake ([1]; 0.001% NEODOL 91-6, 1% motor oil, 31 h) of 160 and an oxygen uptake ([1]; 0.001% NEODOL 91-6, 1% motor oil, 48 h) of 200. The oxygen uptake ([1]; 0.01% NEODOL 91-6, 1% motor oil, 0 h) was 0, the oxygen uptake ([1]; 0.01% NEODOL 91-6, 1% motor oil, 12 h) was 40 and the oxygen uptake ([1]; 0.01% NEODOL 91-6, 1% motor oil, 21 h) was 40. For the same substance, the oxygen uptake ([1]; 0.01% NEODOL 91-6, 1% motor oil, 28 h) was 60, the oxygen uptake ([1]; 0.01% NEODOL 91-6, 1% motor oil, 31 h) was 60 and the oxygen uptake ([1]; 0.01% NEODOL 91-6, 1% motor oil, 48 h) was 110. For the same substance, the oxygen uptake ([1]; 0.1% NEODOL 91-6, 1% motor oil, 0 h) was 0, the oxygen uptake ([1]; 0.1% NEODOL 91-6, 1% motor oil, 12 h) was 20 and the oxygen uptake ([1]; 0.1% NEODOL 91-6, 1% motor oil, 21 h) was 40. For the same substance, the oxygen uptake ([1]; 0.1% NEODOL 91-6, 1% motor oil, 28 h) was 60, the oxygen uptake ([1]; 0.1% NEODOL 91-6, 1% motor oil, 31 h) was 80 and the oxygen uptake ([1]; 0.1% NEODOL 91-6, 1% motor oil, 48 h) was 110. For the same substance, the oxygen uptake ([1]; 0.5% NEODOL 91-6, 1% motor oil, 0 h) was 0, the oxygen uptake ([1]; 0.5% NEODOL 91-6, 1% motor oil, 12 h) was 20 and the oxygen uptake ([1]; 0.5% NEODOL 91-6, 1% motor oil, 21 h) was 40. It also gave an oxygen uptake ([1]; 0.5% NEODOL 91-6, 1% motor oil, 28 h) of 50, an oxygen uptake ([1]; 0.5% NEODOL 91-6, 1% motor oil, 31 h) of 70 and an oxygen uptake ([1]; 0.5% NEODOL 91-6, 1% motor oil, 48 h) of 90. For the same substance, the oxygen uptake ([1]; 1.0% NEODOL 91-6, 1% motor oil, 0 h) was 0, the oxygen uptake ([1]; 1.0% NEODOL 91-6, 1% motor oil, 12 h) was 10 and the oxygen uptake ([1]; 1.0% NEODOL 91-6, 1% motor oil, 21 h) was 20. For the same substance, the oxygen uptake ([1]; 1.0% NEODOL 91-6, 1% motor oil, 28 h) was 30, the oxygen uptake ([1]; 1.0% NEODOL 91-6, 1% motor oil, 31 h) was 50 and the oxygen uptake ([1]; 1.0% NEODOL 91-6, 1% motor oil, 48 h) was 80. For the same substance, the “function of the pseudomonads in the presence of NEODOL 91-6” value ([1]; tested NEODOL 91-6 concentrations, 48 hour time period) was “remained functional”, the “CFU/mL (time)” value ([2]; 0.5% NEODOL 91-6, 25° C., 1 Month) was 5.0 × 10^7 CFU/mL and the “CFU/mL (time)” value ([2]; 0.5% NEODOL 91-6, 25° C., 3 Months) was 1.0 × 10^7 CFU/mL. The “CFU/mL (time)” value ([2]; 0.5% NEODOL 91-6, 25° C., 5 Months) was 3.0 × 10^7 CFU/mL, the “CFU/mL (time)” value ([2]; 0.5% NEODOL 91-6, 25° C., 7 Months) was 6.0 × 10^6 CFU/mL and the “CFU/mL (time)” value ([2]; 0.5% NEODOL 91-6, 25° C., Zero (h)) was 1.4 × 10^8 CFU/mL. The “CFU/mL (time)” value ([2]; 1.0% NEODOL 91-6, 25° C., 1 Month) was 5.0 × 10^7 CFU/mL, the “CFU/mL (time)” value ([2]; 1.0% NEODOL 91-6, 25° C., 3 Months) was 1.5 × 10^7 CFU/mL and the “CFU/mL (time)” value ([2]; 1.0% NEODOL 91-6, 25° C., 5 Months) was 1.0 × 10^7 CFU/mL. The “CFU/mL (time)” value ([2]; 1.0% NEODOL 91-6, 25° C., 7 Months) was 1.0 × 10^6 CFU/mL, the “CFU/mL (time)” value ([2]; 1.0% NEODOL 91-6, 25° C., Zero (h)) was 1.4 × 10^8 CFU/mL and the “CFU/mL (time)” value ([2]; 5.0% NEODOL 91-6, 25° C., 1 Month) was 5.0 × 10^7 CFU/mL. For the same substance, the “CFU/mL (time)” value ([2]; 5.0% NEODOL 91-6, 25° C., 3 Months) was 1.4 × 10^7 CFU/mL, the “CFU/mL (time)” value ([2]; 5.0% NEODOL 91-6, 25° C., 5 Months) was 1.0 × 10^7 CFU/mL and the “CFU/mL (time)” value ([2]; 5.0% NEODOL 91-6, 25° C., 7 Months) was 1.0 × 10^6 CFU/mL. The “CFU/mL (time)” value ([2]; 5.0% NEODOL 91-6, 25° C., Zero (h)) was 1.4 × 10^8 CFU/mL, the “effect on shelf-life of Pseudomonas putida NRRL-B-18118” value ([2]; NEODOL 91-6 0.5 to 5% in the storage solution) was “not adversely affected” and the “decrease in viability of the pseudomonads” value ([2]; stored in the presence of NEODOL 91-6, over seven months) was “two log decrease”.
